Consider 34 compounds from patent US10098887B2, “Antiviral compounds and methods of use thereof” (Trana Discovery, Inc., priority 2010, dated 2018).

Molecules are shown by their SMILES.

System in the first assay: not listed separately
The experiment in a line: assays described herein (not specified).
Details: not given
Turning to `O=C(c1ccc(Br)cc1)c1ccc(N2CCCCC2)c([N+](=O)[O-])c1` [Compound 92, (4-bromophenyl)[3-nitro-4-(1-piperidinyl)phenyl]methanone], the “active in the assays described herein” value is given as “active”.

For the compound `O=C1c2ccc([N+](=O)[O-])cc2C(=O)N1C1CC2CCC1C2` (stereo not shown) [Compound 57, 2-bicyclo[2.2.1]hept-2-yl-5-nitro-1H-isoindole-1,3(2H)-dione], the “active in the assays described herein” value is given as “active”.

With `COc1ccc(C(=C2C=CC=C2)c2ccc(OC)cc2)cc1` [Compound 46, 1,1′-(2,4-cyclopentadien-1-ylidenemethylene)bis(4-methoxybenzene)], the “active in the assays described herein” value is “active”.

Consider `CCc1ccc(N2N=C(C)C(=Cc3ccc(N4CCOCC4)cc3)C2=O)cc1` [Compound 32, 2-(4-ethylphenyl)-5-methyl-4-[4-(4-morpholinyl)benzylidene]-2,4-dihydro-3H-pyrazol-3-one], for which the “active in the assays described herein” value is given as “active”.

A further assay deals with interaction between Human tRNA^Lys3 and HIV-1 genomic RNA. The assay can be described thus: Biochemical HIV-1 tRNA Inhibition Assay (AlphaScreen). Type of assay: binding. Set-up: key: +: showing some activity; ++: intermediate activity; +++: the highest activity. The following applies: active compounds from high throughput screening, prioritized on IC50. The source says: The methods for detecting binding of the target RNA to the tRNA or the inhibition of such binding may be performed using any method for such detection. For example, the AlphaScreen® assay (Packard Instrument Company, Meriden, Conn.). AlphaScreen® technology is an “Amplified Luminescent Proximity Homogeneous Assay” method utilizing latex microbeads (250 nm diameter) containing a photosensitizer (donor beads), or chemiluminescent groups and fluorescent acceptor molecules (acceptor beads). Upon illumination with laser light at 680 nm, the photosensitizer in the donor bead converts ambient oxygen to singlet-state oxygen. The excited singlet-state oxygen molecules diffuse approximately 250 nm (one bead diameter) before rapidly decaying. If the acceptor bead is in close proximity to the donor bead (i.e., by virtue of the interaction of the target RNA and tRNA fragment), the singlet-state oxygen molecules reacts with chemiluminescent groups in the acceptor beads, which immediately transfer energy to fluorescent acceptors in the same bead. These fluorescent acceptors shift the emission wavelength to 520-620 nm, resulting in a detectable signal. Antagonists of the interaction of the target RNA with the tRNA fragment will thus inhibit the shift in emission wavelength, whereas agonists of this interaction would enhance it.
In the AlphaScreen configuration (FIG. 3) the assay is done in solution using the same RNA as the immobilization assay. The donor and acceptor beads are bound to their respective RNA's. During the screening the RNAs and test drugs/small molecules are incubated together and formation of the complex is measured using the AlphaScreen detection conditions. Utilization of the AlphaScreen assay may allow for the assay to be run at a lower RNA concentration at room temperature, and increase the stability of the complex.
HIV-1 has evolved to use Human tRNA^Lys3 as a primer for initiation of reverse transcription. Therefore, the interaction between tRNA^Lys3 and viral genomic RNA represents a potential novel target for HIV-1 drug development. Based on this hypothesis, a biochemical assay to identify inhibitors of the interaction between Human tRNA^Lys3 and HIV-1 genomic RNA was developed by TRANA Discovery and transferred to Southern Research Institute for high-throughput screening. This assay was developed as a homogeneous amplified luminescent proximity assay using AlphaScreen™ reagents from PerkinElmer. Based on this assay technology, the AlphaScreen™ luminescent signal serves as a mechanism for detecting the interaction between RNA molecules that represent Human tRNA^Lys3 and HIV-1 genomic RNA. The inhibition of the interaction between these RNA molecules by test compounds is detected as a decrease in the AlphaScreen™ luminescent signal.
A preliminary 15,000 compound screen (NINDS Diversity Set) was previously completed and the results were reported through NIAID contract N01-AI-70042. For the results described herein, a 101,000 compound library that was purchased from ChemBridge for the NIAID TAACF program was used. This library was carefully selected for diversity and minimal similarity to the 100,000 compound NINDS library, which is also planned to be screened using the TRANA Discovery Biochemical HIV-1 tRNA Inhibition Assay. The compounds were screened at a concentration of 12.5 μg/mL (first 3 batches) or 25 μg/mL (fourth and final batch).
In the case of `COC(=O)c1ccc(NC2=C(N3CCCC3)C(=O)c3ccccc3C2=O)cc1` [methyl 4-{[1,4-dioxo-3-(1-pyrrolidinyl)-1,4-dihydro-2-naphthalenyl]amino}benzoate], the Activity result is recorded as “++”.

In the case of `CCOC(=O)C(C(=O)c1ccccc1)C1=CC(=O)C(=O)c2ccc(Br)cc21` (stereo not shown) [ethyl 2-(7-bromo-3,4-dioxo-3,4-dihydro-1-naphthalenyl)-3-oxo-3-phenylpropanoate], the Activity entry is given as “+”.

In the case of `CCN(CC)CCN(CC)Cc1ccc(N(C)C)cc1` [N-[4-(dimethylamino)benzyl]-N,N′,N′-triethyl-1,2-ethanediamine], the Activity result is “+”.

For `CN(CCN(C)N=Cc1cccc([N+](=O)[O-])c1)N=Cc1cccc([N+](=O)[O-])c1` [3-nitrobenzaldehyde 1,2-ethanediyl(methylhydrazone)], the Activity result is reported as “+”.

In the case of `Cc1ccc2nc3c(c(Nc4ccc(N(C)C)cc4)c2c1)CCC3` [N,N-dimethyl-N′-(7-methyl-2,3-dihydro-1H-cyclopenta[b]quinolin-9-yl)-1,4-benzenediamine], the Activity entry is “+”.

Take `CCOC(=O)CCCCC(=O)c1[nH]c(=O)[nH]c1C` [ethyl 6-(5-methyl-2-oxo-2,3-dihydro-1H-imidazol-4-yl)-6-oxohexanoate]: the Activity result is given as “++”.

Regarding `O=C1C(Cl)=C(NCc2ccccc2)C(=O)c2ccccc21` [2-(benzylamino)-3-chloronaphthoquinone], the Activity result is recorded as “+”.

Consider `CCOc1nc(NC(=N)N)nc2c(C)cccc12` [N-(4-ethoxy-8-methyl-2-quinazolinyl)guanidine], for which the Activity entry is given as “++”.

Regarding `Cn1cccc1C=C1C(=O)NC(=S)N(c2ccc(Cl)cc2)C1=O` [1-(4-chlorophenyl)-5-[(1-methyl-1H-pyrrol-2-yl)methylene]-2-thioxodihydro-4,6(1H,5H)-pyrimidinedione], the Activity result was “+”.

With `O=C1C(=Cc2ccc(O)c(O)c2)SC(=S)N1c1cccc(F)c1` [5-(3,4-dihydroxybenzylidene)-3-(3-fluorophenyl)-2-thioxo-1,3-thiazolidin-4-one], the Activity result was “++”.

With `Cc1ccc2c(C)nc(Nc3nc(C)cc(O)n3)nc2c1` [2-[(4,7-dimethyl-2-quinazolinyl)amino]-6-methyl-4-pyrimidinol], the Activity entry is reported as “+”.

On to `COc1cccc(NC2=C(N3CCCCC3)C(=O)c3ccccc3C2=O)c1` [2-[(3-methoxyphenyl)amino]-3-(1-piperidinyl)naphthoquinone], for which the Activity result is recorded as “++”.

For `Br.CCN(CC)c1ccc(Nc2nc(-c3ccccn3)cs2)cc1` [N,N-diethyl-N′-[4-(2-pyridinyl)-1,3-thiazol-2-yl]-1,4-benzenediamine hydrobromide], the Activity result is reported as “+”.

As for `COc1ccc2c(C)nc(NC(=N)N)nc2c1` [N-(7-methoxy-4-methyl-2-quinazolinyl)guanidine], the Activity entry was “+”.

As for `Cc1[nH]c(=O)[nH]c1C(=O)CCCCC(=O)O` [6-(5-methyl-2-oxo-2,3-dihydro-1H-imidazol-4-yl)-6-oxohexanoic acid], the Activity entry is listed as “+++”.

`COC(=O)c1ccc(NC2=C(N3CCOCC3)C(=O)c3ccccc3C2=O)cc1` [methyl 4-{[3-(4-morpholinyl)-1,4-dioxo-1,4-dihydro-2-naphthalenyl]amino}benzoate]: the Activity result is listed as “++”.

For `CCN(CC)c1ccc(NC(=S)NC(=O)c2cccc(OC(C)C)c2)cc1` [N-({[4-(diethylamino)phenyl]amino}carbonothioyl)-3-isopropoxybenzamide], the Activity result is reported as “+”.

Turning to `Cc1ccccc1NC1=C(N2CCOCC2)C(=O)c2ccccc2C1=O` [2-[(2-methylphenyl)amino]-3-(4-morpholinyl)naphthoquinone], the Activity entry is listed as “++”.

As to `CCOc1ccc(Nc2ccc([N+](=O)[O-])c3nonc23)cc1` [N-(4-ethoxyphenyl)-7-nitro-2,1,3-benzoxadiazol-4-amine], the Activity result is given as “+”.

As for `COC(=O)c1ccc(N2CCCCC2)c2c1C(=O)c1ccccc1C2=O` [methyl 9,10-dioxo-4-(1-piperidinyl)-9,10-dihydro-1-anthracenecarboxylate], the Activity entry is “++”.

As for `COc1ccccc1N1CCN(CC=Cc2ccc(N(C)C)cc2)CC1` [(4-{3-[4-(2-methoxyphenyl)-1-piperazinyl]-1-propen-1-yl}phenyl)dimethylamine], the Activity entry is on record as “+”.

Regarding `CCCCOc1cccc(C(=O)NC(=S)Nc2ccc(N(C)C)cc2)c1` [3-butoxy-N-({[4-(dimethylamino)phenyl]amino}carbonothioyl)benzamide], the Activity entry is “+”.

In the case of `O=C1C(Nc2cc(F)cc(F)c2)=C(N2CCOCC2)C(=O)c2ccccc21` [2-[(3,5-difluorophenyl)amino]-3-(4-morpholinyl)naphthoquinone], the Activity entry is given as “++”.

Turning to `CCOC(=O)C=C1NC(c2ccccc2)=C(c2ccccc2)C1=O` [ethyl (3-oxo-4,5-diphenyl-1,3-dihydro-2H-pyrrol-2-ylidene)acetate], the Activity entry is given as “++”.

As to `Cc1cccc(N2C(=O)C(=Cc3cccn3C)C(=O)NC2=S)c1` [1-(3-methylphenyl)-5-[(1-methyl-1H-pyrrol-2-yl)methylene]-2-thioxodihydro-4,6(1H,5H)-pyrimidinedione], the Activity result is listed as “++”.

For the compound `Cc1ccc(C=NNc2ccccc2[N+](=O)[O-])o1` [5-methyl-2-furaldehyde (2-nitrophenyl)hydrazone], the Activity entry is given as “+”.

With `O=C(NN1C(=O)C(=Cc2ccc(O)c(O)c2)SC1=S)c1ccccc1Br` [2-bromo-N-[5-(3,4-dihydroxybenzylidene)-4-oxo-2-thioxo-1,3-thiazolidin-3-yl]benzamide], the Activity entry is “+”.

`CN(C)c1cccc2c1C(=O)c1ccccc1C2=O` [1-(dimethylamino)anthra-9,10-quinone]: the Activity result is recorded as “++”.

Consider `O=[N+]([O-])c1ccc(Nc2ccc(O)cc2)c2nonc12` [4-[(7-nitro-2,1,3-benzoxadiazol-4-yl)amino]phenol], for which the Activity result is reported as “++”.

`Cc1cccc(NC2=C(N(C)C)C(=O)c3ccccc3C2=O)c1` [2-(dimethylamino)-3-[(3-methylphenyl)amino]naphthoquinone]: the Activity entry is reported as “++”.
